The record followed here is article PMC4818757, “Small molecule inhibitors of the Dishevelled‐CXXC5 interaction are new drug candidates for bone anabolic osteoporosis therapy” (EMBO Molecular Medicine, 2016).

Data set [1] deals with T1, Cytochrome P450 (CYP) 1A2 (Homo sapiens, UniProt P05177).
T1 sequence (P05177 1-516): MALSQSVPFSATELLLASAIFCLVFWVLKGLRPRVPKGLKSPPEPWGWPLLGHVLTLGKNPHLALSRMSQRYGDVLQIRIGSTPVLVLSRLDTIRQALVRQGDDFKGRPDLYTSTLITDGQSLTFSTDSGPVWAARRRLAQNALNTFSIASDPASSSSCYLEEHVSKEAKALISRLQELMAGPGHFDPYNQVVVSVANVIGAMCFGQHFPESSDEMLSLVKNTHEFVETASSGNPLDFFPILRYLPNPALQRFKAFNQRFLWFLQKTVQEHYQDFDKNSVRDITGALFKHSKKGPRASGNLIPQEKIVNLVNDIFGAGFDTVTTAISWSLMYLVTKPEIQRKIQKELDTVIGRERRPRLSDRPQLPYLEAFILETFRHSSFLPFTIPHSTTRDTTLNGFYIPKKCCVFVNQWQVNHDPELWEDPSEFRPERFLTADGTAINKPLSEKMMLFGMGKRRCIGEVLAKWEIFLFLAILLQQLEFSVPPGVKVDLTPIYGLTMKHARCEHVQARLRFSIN
The data set can be described thus: Cytochrome P450 inhibition assay, 1A2. The settings on record: 10 μM; 1A2, C29 and 3A4 together.

Data set [2] has as its target T2, CYP1A2 (Homo sapiens, UniProt P05177).
T2 sequence (P05177 1-516): T1 sequence (P05177 1-516)
The data set can be described thus: in vitro. The settings on record: probe fluorogenic P450 substrates.

Data set [3] has as its system mouse embryonic fibroblast (MEF) cells. The data set can be described thus: qRT-PCR of pathway-specific target genes in MEF cells (off-target). The settings on record: 12 hours. The format is cell-based. Here is the method: To evaluate off‐target effects of KY‐02327, we monitored the transcriptional regulation of target genes of major cell signaling pathways in KY‐02327‐treated mouse embryonic fibroblast (MEF) cells (Appendix Table S2 and Appendix Fig S5). […] However, the target genes of other pathways were unaffected by the treatment of KY‐02327 (Appendix Fig S5B‐J). […]
on mouse embryonic fibroblast cells for 12 hours. The mRNA level of pathway-specific target genes (Appendix Table S2) was measured by quantitative real-time […]
Data Information: The data are the mean ± s.d. (error bars), and significance was assessed using unpaired Student’s t-test. [n =3]

Data set [4] has as its system MC3T3E1 cells. In words: β-catenin and Runx2 immunoblot/immunofluorescence in MC3T3E1 cells. Type of data set: cell-based, murine. Particulars: 2 days, dose‐dependent. The method, then:
Figure 5 Effects of KY‐02327 on Wnt/β‐catenin pathway and osteoblast differentiation in osteoblasts • A MC3T3E1 cells were transfected with pTOPFLASH together with pCMV‐β‐gal. After 24 h, the cells were treated with indicated dose of KY‐02327 for 2 days. The luciferase activities of whole‐cell lysates were measured and normalized with β‐galactosidase activities. (n = 3) • B, C MC3T3E1 cells were treated with indicated concentrations of KY‐02327 for 2 days. β‐Catenin and α‐tubulin were detected by immunoblot (B) or immunofluorescence (C) analyses. Nuclei were counterstained with DAPI (C, blue). Scale bars, 100 μm. • D MC3T3E1 cells were treated with indicated concentrations of KY‐02327 for 14 days. The mRNA level of collagen 1a (Col1a) was measured by quantitative real‐time PCR (qRT–PCR). (n = 3) • E MC3T3E1 cells were treated with indicated concentrations of KY‐02327 for 21 days. The mRNA level of osteocalcin (OCN) was measured by qRT–PCR. (n = 3) Data Information: For A, D, and E, the data are the mean ± s.d. (error bars), and significance was assessed using unpaired Student's t‐test. […]

For data set [5], the system named is primary calvaria cells. In words: MTT cell viability of primary calvaria cells. Type of data set: cell-based, mouse. The settings on record: 2 μM. Here is the method:
Appendix Figure S2. The effects of Dvl-CXXC5 binding small molecule inhibitors on primary calvaria cells.
A Primary calvaria cells were treated with 2 µ M of each compound for the indicated times. The cells were subjected to an MTT assay (OD590 reading) to measure cell viability. The data are the mean ± s.d. (error […]
B Primary calvaria cells were treated with 2 µ M of each compound for 4 days. ALP activity levels were visualized by ALP staining. [n =2]
(1 picture or pasted object on this page, not shown here)

In data set [6] the test system is primary calvaria cells. In words: β-catenin / Runx2 immunofluorescence in primary calvaria cells. The format is cell-based, mouse.

On to `CCOC(=O)c1cc2cc(O)ccc2n1CC(=O)NCCN1CCCCC1` [KY‐02327], for which, in data set [1], the “inhibitory effect on the liver enzymes (cytochrome P450)” value is “no inhibitory effect”. The compound also displayed an inhibition at 10 µM in data set [2] of 0%. For the same compound, in data set [3], the “mRNA levels of Wnt/β‐catenin target genes” value is reported as “significantly increased” and the “target genes of other pathways (off-target)” value is listed as “unaffected”. Also, the “β‐catenin protein level together with Runx2, nuclear β‐catenin” value in data set [4] was “increased”.

Turning to `CCOC(=O)Cn1c(C(=O)OCC)cc2cc(OS(=O)(=O)c3ccc(C)cc3)ccc21` [KY‐02061], in data set [5], the “cytotoxic effect (cell number and viability)” value is “without any cytotoxic effect”. In data set [6] (2 μM, 2 days), the “nuclear accumulation of β‐catenin” value is “strong accumulation”. Further, the “levels of Runx2 and β‐catenin” value in data set [6] (5 μM, 14 days) is “increased levels”.
